Reference: PubChem BioAssay (NCI)
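In this assay, cells in 96-well plates receive the compound at five concentrations for 48 hours. Endpoints are linearly interpolated between the surrounding concentrations. GI50 = concentration required for 50% inhibition of growth. TGI is the concentration that stops growth completely.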 Where a SMILES comes first, the peptide text is derived from it.

Legend:
Assay in all cases: NCI anticancer screen, dose series, 48 h
OVCAR-3 ovarian = test system: OVCAR-3 ovarian
SK-MEL-5 melanoma = test system: SK-MEL-5 melanoma
CAKI-1 renal = test system: CAKI-1 renal
RXF 393 renal = test system: RXF 393 renal
SN12C renal = test system: SN12C renal
SK-OV-3 ovarian = test system: SK-OV-3 ovarian
ACHN renal = test system: ACHN renal
HL-60(TB) leukemia = test system: HL-60(TB) leukemia
KM12 colon = test system: KM12 colon
SW-620 colon = test system: SW-620 colon
T-47D breast = test system: T-47D breast
HCC-2998 colon = test system: HCC-2998 colon
COLO 205 colon = test system: COLO 205 colon
HOP-62 NSCLC = test system: HOP-62 NSCLC
A549 NSCLC = test system: A549 NSCLC
SF-268 CNS = test system: SF-268 CNS
HCT-15 colon = test system: HCT-15 colon
A498 renal = test system: A498 renal
NCI-H226 lung = test system: NCI-H226 lung
786-0 renal = test system: 786-0 renal
SK-MEL-2 melanoma = test system: SK-MEL-2 melanoma
OVCAR-5 ovarian = test system: OVCAR-5 ovarian
HS 578T breast = test system: HS 578T breast
NCI-H522 lung = test system: NCI-H522 lung
U251 CNS = test system: U251 CNS
UACC-257 melanoma = test system: UACC-257 melanoma
OVCAR-4 ovarian = test system: OVCAR-4 ovarian
SF-539 CNS = test system: SF-539 CNS
MCF7 breast = test system: MCF7 breast
SNB-19 CNS = test system: SNB-19 CNS
IGROV1 ovarian = test system: IGROV1 ovarian
K-562 leukemia = test system: K-562 leukemia
MDA-MB-231 breast = test system: MDA-MB-231 breast
MALME-3M melanoma = test system: MALME-3M melanoma
RPMI-8226 leukemia = test system: RPMI-8226 leukemia
MDA-MB-435 = test system: MDA-MB-435
MOLT-4 leukemia = test system: MOLT-4 leukemia
EKVX NSCLC = test system: EKVX NSCLC
TK-10 renal = test system: TK-10 renal
DU-145 prostate = test system: DU-145 prostate
SR leukemia = test system: SR leukemia
SNB-75 CNS = test system: SNB-75 CNS
UACC-62 melanoma = test system: UACC-62 melanoma
PC-3 prostate = test system: PC-3 prostate
NCI/ADR-RES ovarian = test system: NCI/ADR-RES ovarian
HOP-92 NSCLC = test system: HOP-92 NSCLC
LOX IMVI melanoma = test system: LOX IMVI melanoma
SF-295 CNS = test system: SF-295 CNS
UO-31 renal = test system: UO-31 renal
CCRF-CEM leukemia = test system: CCRF-CEM leukemia
M14 melanoma = test system: M14 melanoma
SK-MEL-28 melanoma = test system: SK-MEL-28 melanoma
NCI-H460 lung = test system: NCI-H460 lung
NCI-H23 lung = test system: NCI-H23 lung
BT-549 breast = test system: BT-549 breast
HCT-116 colon = test system: HCT-116 colon
OVCAR-8 ovarian = test system: OVCAR-8 ovarian
HT29 colon = test system: HT29 colon

For `CCC(C)C1NC(=O)C(CCCCN)NC(=O)C(CCCCN)NC(=O)C(CC(C)C)NC(=O)C(CCCCN)NC(=O)C(C(C)CC)NC(=O)C(C(C)C)NC(=O)C(C(C)CC)NC(=O)C(CCCCN)NC(=O)C(CCCCN)NC(=O)C(C)NC(=O)C(CCCCN)NC(=O)C(CC(C)C)NC1=O` (stereo unspecified) (cyclo(AKKIVIKLKKILK); configuration not given here), the GI50 (OVCAR-3 ovarian) was 1620 nM, the TGI (OVCAR-3 ovarian) was 3630 nM and the GI50 (SK-MEL-5 melanoma) was 1010 nM. The TGI (SK-MEL-5 melanoma) was 2190 nM, the GI50 (CAKI-1 renal) was 1560 nM and the TGI (CAKI-1 renal) was 3760 nM. It also gave a GI50 (RXF 393 renal) of 1490 nM, a TGI (RXF 393 renal) of 3010 nM and a GI50 (SN12C renal) of 1940 nM. For the same molecule, the TGI (SN12C renal) was 6460 nM, the GI50 (SK-OV-3 ovarian) was 2090 nM and the TGI (SK-OV-3 ovarian) was 5880 nM. It also gave a GI50 (ACHN renal) of 2360 nM, a TGI (ACHN renal) of 6840 nM and a GI50 (HL-60(TB) leukemia) of 2420 nM. For the same molecule, the TGI (HL-60(TB) leukemia) was 6930 nM, the GI50 (KM12 colon) was 2550 nM and the TGI (KM12 colon) was 8090 nM. The GI50 (SW-620 colon) was 1750 nM, the TGI (SW-620 colon) was 3590 nM and the GI50 (T-47D breast) was 1690 nM. The TGI (T-47D breast) was 6700 nM, the GI50 (HCC-2998 colon) was 2650 nM and the TGI (HCC-2998 colon) was 8520 nM. The GI50 (COLO 205 colon) was 1740 nM, the TGI (COLO 205 colon) was 3650 nM and the GI50 (HOP-62 NSCLC) was 1760 nM. It also gave a TGI (HOP-62 NSCLC) of 3970 nM, a GI50 (A549 NSCLC) of 2260 nM and a TGI (A549 NSCLC) of 9640 nM. For the same molecule, the GI50 (SF-268 CNS) was 2590 nM, the TGI (SF-268 CNS) was 11300 nM and the GI50 (HCT-15 colon) was 1600 nM. For the same molecule, the TGI (HCT-15 colon) was 3270 nM, the GI50 (A498 renal) was 1660 nM and the TGI (A498 renal) was 3840 nM. The GI50 (NCI-H226 lung) was 1210 nM, the TGI (NCI-H226 lung) was 3370 nM and the GI50 (786-0 renal) was 1800 nM. For the same molecule, the TGI (786-0 renal) was 3640 nM, the GI50 (SK-MEL-2 melanoma) was 2060 nM and the TGI (SK-MEL-2 melanoma) was 4880 nM. For the same molecule, the GI50 (OVCAR-5 ovarian) was 2330 nM, the TGI (OVCAR-5 ovarian) was 8180 nM and the GI50 (HS 578T breast) was 2000 nM. For the same molecule, the TGI (HS 578T breast) was 5660 nM, the GI50 (NCI-H522 lung) was 1740 nM and the TGI (NCI-H522 lung) was 4700 nM. For the same molecule, the GI50 (U251 CNS) was 1590 nM, the TGI (U251 CNS) was 3250 nM and the GI50 (UACC-257 melanoma) was 2420 nM. It also gave a TGI (UACC-257 melanoma) of 7570 nM, a GI50 (OVCAR-4 ovarian) of 1280 nM and a TGI (OVCAR-4 ovarian) of 13400 nM. The GI50 (SF-539 CNS) was 2050 nM, the TGI (SF-539 CNS) was 4380 nM and the GI50 (MCF7 breast) was 1870 nM. It also gave a TGI (MCF7 breast) of 5980 nM, a GI50 (SNB-19 CNS) of 2930 nM and a TGI (SNB-19 CNS) of 14000 nM. For the same molecule, the GI50 (IGROV1 ovarian) was 1970 nM, the TGI (IGROV1 ovarian) was 6180 nM and the GI50 (K-562 leukemia) was 1310 nM. The TGI (K-562 leukemia) was 5470 nM, the GI50 (MDA-MB-231 breast) was 1720 nM and the TGI (MDA-MB-231 breast) was 4250 nM. For the same molecule, the GI50 (MALME-3M melanoma) was 1450 nM, the TGI (MALME-3M melanoma) was 3300 nM and the GI50 (RPMI-8226 leukemia) was 1110 nM. It also gave a TGI (RPMI-8226 leukemia) of 3740 nM, a GI50 (MDA-MB-435) of 1770 nM and a TGI (MDA-MB-435) of 3800 nM. It also gave a GI50 (MOLT-4 leukemia) of 1700 nM, a TGI (MOLT-4 leukemia) of 5290 nM and a GI50 (EKVX NSCLC) of 1330 nM. The TGI (EKVX NSCLC) was 6000 nM, the GI50 (TK-10 renal) was 1870 nM and the TGI (TK-10 renal) was 4630 nM. It also gave a GI50 (DU-145 prostate) of 2990 nM, a TGI (DU-145 prostate) of 10700 nM and a GI50 (SR leukemia) of 1860 nM. It also gave a TGI (SR leukemia) of 5020 nM, a GI50 (SNB-75 CNS) of 1720 nM and a TGI (SNB-75 CNS) of 4350 nM. It also gave a GI50 (UACC-62 melanoma) of 1270 nM, a TGI (UACC-62 melanoma) of 2940 nM and a GI50 (PC-3 prostate) of 779 nM. For the same molecule, the TGI (PC-3 prostate) was 8520 nM, the GI50 (NCI/ADR-RES ovarian) was 1070 nM and the TGI (NCI/ADR-RES ovarian) was 5610 nM. It also gave a GI50 (HOP-92 NSCLC) of 1270 nM, a TGI (HOP-92 NSCLC) of 3240 nM and a GI50 (LOX IMVI melanoma) of 1730 nM. For the same molecule, the TGI (LOX IMVI melanoma) was 3200 nM, the GI50 (SF-295 CNS) was 1140 nM and the TGI (SF-295 CNS) was 2520 nM. The GI50 (UO-31 renal) was 1380 nM, the TGI (UO-31 renal) was 2740 nM and the GI50 (CCRF-CEM leukemia) was 2150 nM. It also gave a TGI (CCRF-CEM leukemia) of 9300 nM, a GI50 (M14 melanoma) of 1600 nM and a TGI (M14 melanoma) of 3460 nM. The GI50 (SK-MEL-28 melanoma) was 1970 nM, the TGI (SK-MEL-28 melanoma) was 4610 nM and the GI50 (NCI-H460 lung) was 1850 nM. For the same molecule, the TGI (NCI-H460 lung) was 4280 nM, the GI50 (NCI-H23 lung) was 704 nM and the TGI (NCI-H23 lung) was 4450 nM. For the same molecule, the GI50 (BT-549 breast) was 1790 nM, the TGI (BT-549 breast) was 3960 nM and the GI50 (HCT-116 colon) was 1460 nM. It also gave a TGI (HCT-116 colon) of 3070 nM, a GI50 (OVCAR-8 ovarian) of 1730 nM and a TGI (OVCAR-8 ovarian) of 6400 nM. The GI50 (HT29 colon) was 2930 nM and the TGI (HT29 colon) was 10800 nM.
